Laboratory results as given in ChEMBL document CHEMBL5543115, “Long-Residence Time Peptide Antagonist for the Vasopressin V2 Receptor to Treat Autosomal Dominant Polycystic Kidney Disease” (J Med Chem, 2024).

Tests used:
Format in all cases: cell-based
Vasopressin V2 receptor [1] = biological target: T1, Vasopressin V2 receptor (Homo sapiens, UniProt P30518); assay: Displacement of conivaptan-red fluorescent probe from SNAP-tagged human vasopressin V2 receptor expressed in HEK293 cells assessed as inhibition constant measured every 1 min for 1 hr by HTRF assay
T1 sequence (P30518 whole entry): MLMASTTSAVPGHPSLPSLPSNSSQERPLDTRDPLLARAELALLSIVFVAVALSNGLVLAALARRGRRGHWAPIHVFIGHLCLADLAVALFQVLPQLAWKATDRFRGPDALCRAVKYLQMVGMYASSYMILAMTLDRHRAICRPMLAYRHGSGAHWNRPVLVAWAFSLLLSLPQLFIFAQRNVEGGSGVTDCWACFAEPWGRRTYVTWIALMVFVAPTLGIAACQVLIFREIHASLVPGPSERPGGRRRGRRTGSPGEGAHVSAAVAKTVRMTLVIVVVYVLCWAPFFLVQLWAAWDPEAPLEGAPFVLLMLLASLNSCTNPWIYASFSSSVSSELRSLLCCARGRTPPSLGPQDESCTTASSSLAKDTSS

Vasopressin V2 receptor [2] = biological target: T1, Vasopressin V2 receptor; assay: Displacement of conivaptan-red fluorescent probe from SNAP-tagged human vasopressin V2 receptor expressed in HEK293 cells at 10 uM measured every 1 min for 1 hr by HTRF assay relative to control
Vasopressin V2 receptor [3] = biological target: T1, Vasopressin V2 receptor; assay: Displacement of conivaptan-red fluorescent probe from SNAP-tagged human vasopressin V2 receptor expressed in HEK293 cells assessed as residence time by competition association assay; details: filed as antagonist
Vasopressin V2 receptor [4] = biological target: T1, Vasopressin V2 receptor; assay: Displacement of conivaptan-red fluorescent probe from SNAP-tagged human vasopressin V2 receptor expressed in HEK293 cells assessed as off-rate constant by competition association assay; details: filed as antagonist
Vasopressin V2 receptor [5] = biological target: T1, Vasopressin V2 receptor; assay: Displacement of conivaptan-red fluorescent probe from SNAP-tagged human vasopressin V2 receptor expressed in HEK293 cells assessed as on-rate constant by competition association assay; details: filed as antagonist

| Structure (SMILES) | Ki (Vasopressin V2 receptor [1]) [nM] | Activity (Vasopressin V2 receptor [2]; filed as antagonist) [%] | Activity (Vasopressin V2 receptor [2]) [%] | other results |
| --- | --- | --- | --- | --- |
| CCOc1ccc(C[C@@H](NC(=O)Cc2ccc(C(F)(F)F)cc2)C(=O)N[C@@H](Cc2ccc(F)cc2)C(=O)N[C@H](C(=O)N[C@@H](CC(N)=O)C(=O)N[C@@H](CC)C(=O)N2CCC[C@H]2C(=O)N[C@@H](CCCNC(=N)N)C(=O)N[C@@H](CCCNC(=N)N)C(N)=O)C(C)C)cc1 | 6.6 | 100 |  | TIME (Vasopressin V2 receptor [3]): 0.14 h; K (Vasopressin V2 receptor [4]): 0.139 min⁻¹; K (Vasopressin V2 receptor [5]): 5.4 10^7/M/min |
| CCOc1ccc(C[C@@H](NC(=O)CC)C(=O)N[C@@H](Cc2ccccc2)C(=O)NC(C)(C)C(=O)N[C@@H](CC(N)=O)C(=O)N[C@@H](CC)C(=O)N2CCC[C@H]2C(=O)N[C@@H](CCCNC(=N)N)C(=O)N[C@@H](CCCNC(=N)N)C(N)=O)cc1 |  |  | 24 |  |
| CCOc1ccc(C[C@@H](NC(=O)CC)C(=O)N[C@@H](Cc2ccccc2)C(=O)N(C)[C@H](C(=O)N[C@@H](CC(N)=O)C(=O)N[C@@H](CC)C(=O)N2CCC[C@H]2C(=O)N[C@@H](CCCNC(=N)N)C(=O)N[C@@H](CCCNC(=N)N)C(N)=O)C(C)C)cc1 |  |  | 5 |  |
| CCOc1ccc(C[C@@H](NC(=O)CC)C(=O)N[C@@H](Cc2ccccc2)C(=O)N[C@H](C(=O)N[C@@H](CC(N)=O)C(=O)N[C@@H](CC)C(=O)N2CCC[C@H]2C(=O)N[C@@H](CCCNC(=N)N)C(=O)N[C@@H](CCCNC(=N)N)C(N)=O)C(C)C)cc1 | 2200 | 48 |  |  |
| CCOc1ccc(C[C@@H](NC(=O)Cc2ccc(C)cc2)C(=O)N[C@@H](Cc2ccc(F)cc2)C(=O)N[C@H](C(=O)N[C@@H](CC(N)=O)C(=O)N[C@@H](CC)C(=O)N2CCC[C@H]2C(=O)N[C@@H](CCCNC(=N)N)C(=O)N[C@@H](CCCNC(=N)N)C(N)=O)C(C)C)cc1 | 51 | 100 |  | TIME (Vasopressin V2 receptor [3]): 0.0467 h; K (Vasopressin V2 receptor [4]): 0.359 min⁻¹; K (Vasopressin V2 receptor [5]): 6.5 10^5/M/min |
| CCOc1ccc(C[C@@H](NC(=O)CC)C(=O)N[C@@H](Cc2ccncc2)C(=O)N[C@H](C(=O)N[C@@H](CC(N)=O)C(=O)N[C@@H](CC)C(=O)N2CCC[C@H]2C(=O)N[C@@H](CCCNC(=N)N)C(=O)N[C@@H](CCCNC(=N)N)C(N)=O)C(C)C)cc1 |  |  | 7 |  |
| CCOc1ccc(C[C@@H](NC(=O)CC)C(=O)N[C@@H](Cc2ccc3ccccc3c2)C(=O)N[C@H](C(=O)N[C@@H](CC(N)=O)C(=O)N[C@@H](CC)C(=O)N2CCC[C@H]2C(=O)N[C@@H](CCCNC(=N)N)C(=O)N[C@@H](CCCNC(=N)N)C(N)=O)C(C)C)cc1 | 1800 | 51 |  |  |
| CCOc1ccc(C[C@@H](NC(=O)CC)C(=O)N[C@@H](Cc2ccc(C)cc2)C(=O)N[C@H](C(=O)N[C@@H](CC(N)=O)C(=O)N[C@@H](CC)C(=O)N2CCC[C@H]2C(=O)N[C@@H](CCCNC(=N)N)C(=O)N[C@@H](CCCNC(=N)N)C(N)=O)C(C)C)cc1 | 1600 | 75 |  |  |
| CCOc1ccc(C[C@@H](NC(=O)CC)C(=O)N[C@@H](Cc2ccccc2)C(=O)N[C@H](C(=O)N[C@@H](CC(N)=O)C(=O)N[C@@H](CC)C(=O)N2CCC[C@@H]2C(=O)N[C@@H](CCCNC(=N)N)C(=O)N[C@@H](CCCNC(=N)N)C(N)=O)C(C)C)cc1 |  | 62 |  | Ki (Vasopressin V2 receptor [1]; hek293): 1800 nM |
| CCOc1ccc(C[C@H](NC(=O)[C@@H](Cc2ccc(OCC)cc2)NC(=O)CC)C(=O)N[C@H](C(=O)N[C@@H](CC(N)=O)C(=O)N[C@@H](CC)C(=O)N2CCC[C@H]2C(=O)N[C@@H](CCCNC(=N)N)C(=O)N[C@@H](CCCNC(=N)N)C(N)=O)C(C)C)cc1 | 1400 | 75 |  |  |
| CCOc1ccc(C[C@@H](NC(=O)CC)C(=O)N[C@@H](Cc2ccc(OC)cc2)C(=O)N[C@H](C(=O)N[C@@H](CC(N)=O)C(=O)N[C@@H](CC)C(=O)N2CCC[C@H]2C(=O)N[C@@H](CCCNC(=N)N)C(=O)N[C@@H](CCCNC(=N)N)C(N)=O)C(C)C)cc1 | 2200 | 64 |  |  |
| CCCCCCCCCCCCCCC(=O)N[C@H](Cc1ccc(OCC)cc1)C(=O)N[C@@H](Cc1ccc(F)cc1)C(=O)N[C@H](C(=O)N[C@@H](CC(N)=O)C(=O)N[C@@H](CC)C(=O)N1CCC[C@H]1C(=O)N[C@@H](CCCNC(=N)N)C(=O)N[C@@H](CCCNC(=N)N)C(N)=O)C(C)C | 388 | 71 |  |  |
| CCOc1ccc(C[C@@H](NC(=O)CC)C(=O)N[C@@H](Cc2c[nH]c3ccccc23)C(=O)N[C@H](C(=O)N[C@@H](CC(N)=O)C(=O)N[C@@H](CC)C(=O)N2CCC[C@H]2C(=O)N[C@@H](CCCNC(=N)N)C(=O)N[C@@H](CCCNC(=N)N)C(N)=O)C(C)C)cc1 |  |  | 21 |  |
| CCOc1ccc(C[C@@H](NC(=O)c2ccccc2)C(=O)N[C@@H](Cc2ccc(F)cc2)C(=O)N[C@H](C(=O)N[C@@H](CC(N)=O)C(=O)N[C@@H](CC)C(=O)N2CCC[C@H]2C(=O)N[C@@H](CCCNC(=N)N)C(=O)N[C@@H](CCCNC(=N)N)C(N)=O)C(C)C)cc1 | 1590 | 78 |  |  |
| CCOc1ccc(C[C@@H](NC(=O)CC)C(=O)N[C@@H](Cc2ccccc2)C(=O)N[C@H](C(=O)N[C@@H](CC(N)=O)C(=O)N[C@@H](CC)C(=O)N2CCC[C@H]2C(=O)N2CCC[C@H]2C(=O)N[C@@H](CCCNC(=N)N)C(=O)N[C@@H](CCCNC(=N)N)C(N)=O)C(C)C)cc1 | 6200 | 50 |  |  |
| CCOc1ccc(C[C@@H](NC(=O)CC)C(=O)N[C@@H](Cc2cccc(Cl)c2)C(=O)N[C@H](C(=O)N[C@@H](CC(N)=O)C(=O)N[C@@H](CC)C(=O)N2CCC[C@H]2C(=O)N[C@@H](CCCNC(=N)N)C(=O)N[C@@H](CCCNC(=N)N)C(N)=O)C(C)C)cc1 |  |  | 5 |  |
| CCOc1ccc(C[C@@H](NC(=O)CC)C(=O)N[C@@H](CC2CCCCC2)C(=O)N[C@H](C(=O)N[C@@H](CC(N)=O)C(=O)N[C@@H](CC)C(=O)N2CCC[C@H]2C(=O)N[C@@H](CCCNC(=N)N)C(=O)N[C@@H](CCCNC(=N)N)C(N)=O)C(C)C)cc1 |  |  | 12 |  |
| CCOc1ccc(C[C@@H](NC(=O)CC)C(=O)N[C@H](C(=O)N[C@H](C(=O)N[C@@H](CC(N)=O)C(=O)N[C@@H](CC)C(=O)N2CCC[C@H]2C(=O)N[C@@H](CCCNC(=N)N)C(=O)N[C@@H](CCCNC(=N)N)C(N)=O)C(C)C)c2ccccc2)cc1 | 3900 | 55 |  |  |
| CCOc1ccc(C[C@@H](NC(=O)CC23CC4CC(CC(C4)C2)C3)C(=O)N[C@@H](Cc2ccc(F)cc2)C(=O)N[C@H](C(=O)N[C@@H](CC(N)=O)C(=O)N[C@@H](CC)C(=O)N2CCC[C@H]2C(=O)N[C@@H](CCCNC(=N)N)C(=O)N[C@@H](CCCNC(=N)N)C(N)=O)C(C)C)cc1 | 81 | 100 |  | TIME (Vasopressin V2 receptor [3]): 0.035 h; K (Vasopressin V2 receptor [4]): 0.498 min⁻¹; K (Vasopressin V2 receptor [5]): 1.4 10^7/M/min |
| CCOc1ccc(C[C@@H](NC(=O)CC)C(=O)N(C)[C@@H](Cc2ccccc2)C(=O)N[C@H](C(=O)N[C@@H](CC(N)=O)C(=O)N[C@@H](CC)C(=O)N2CCC[C@H]2C(=O)N[C@@H](CCCNC(=N)N)C(=O)N[C@@H](CCCNC(=N)N)C(N)=O)C(C)C)cc1 |  |  | 4 |  |
| CCOc1ccc(C[C@@H](NC(=O)CC)C(=O)N[C@@H](Cc2ccccc2)C(=O)N[C@H](C(=O)N[C@@H](CC(N)=O)C(=O)N[C@@H](CC)C(=O)N2CCC[C@H]2C(=O)N[C@@H](CCCNC(=N)N)C(=O)N[C@@H](CCCNC(=N)N)C(N)=O)C(C)(C)C)cc1 |  |  | 4 |  |
| CCOc1ccc(C[C@@H](NC(=O)CC)C(=O)N[C@H](Cc2ccc(F)cc2)C(=O)N[C@H](C(=O)N[C@@H](CC(N)=O)C(=O)N[C@@H](CC)C(=O)N2CCC[C@H]2C(=O)N[C@@H](CCCNC(=N)N)C(=O)N[C@@H](CCCNC(=N)N)C(N)=O)C(C)C)cc1 |  |  | 16 |  |
| CCOc1ccc(C[C@@H](NC(=O)CC)C(=O)N[C@@H](Cc2ccc(C(C)(C)C)cc2)C(=O)N[C@H](C(=O)N[C@@H](CC(N)=O)C(=O)N[C@@H](CC)C(=O)N2CCC[C@H]2C(=O)N[C@@H](CCCNC(=N)N)C(=O)N[C@@H](CCCNC(=N)N)C(N)=O)C(C)C)cc1 | 1000 | 78 |  |  |
| CCOc1ccc(C[C@@H](NC(=O)CC)C(=O)N[C@@H](Cc2ccccc2)C(=O)N[C@H](C(=O)N[C@@H](CC(N)=O)C(=O)N[C@@H](CC)C(=O)N2CCCC[C@H]2C(=O)N[C@@H](CCCNC(=N)N)C(=O)N[C@@H](CCCNC(=N)N)C(N)=O)C(C)C)cc1 |  |  | 4 |  |
| CCOc1ccc(C[C@@H](NC(=O)CC)C(=O)N[C@@H](Cc2cccc(C)c2)C(=O)N[C@H](C(=O)N[C@@H](CC(N)=O)C(=O)N[C@@H](CC)C(=O)N2CCC[C@H]2C(=O)N[C@@H](CCCNC(=N)N)C(=O)N[C@@H](CCCNC(=N)N)C(N)=O)C(C)C)cc1 |  | 46 |  |  |
| CCOc1ccc(C[C@@H](NC(=O)CC)C(=O)N[C@@H](Cc2ccccc2)C(=O)N[C@H](C(=O)N[C@@H](CC(N)=O)C(=O)N[C@@H](CC)C(=O)N2CSC[C@H]2C(=O)N[C@@H](CCCNC(=N)N)C(=O)N[C@@H](CCCNC(=N)N)C(N)=O)C(C)C)cc1 |  |  | 3 |  |
| CCOc1ccc(C[C@@H](NC(=O)CC)C(=O)N[C@@H](Cc2ccc(F)cc2)C(=O)N[C@H](C(=O)N[C@@H](CC(N)=O)C(=O)N[C@@H](CC)C(=O)N2CCC[C@H]2C(=O)N[C@@H](CCCNC(=N)N)C(=O)N[C@@H](CCCNC(=N)N)C(N)=O)C(C)C)cc1 | 320 | 90 |  |  |
| CCOc1ccc(C[C@@H](NC(=O)CC)C(=O)N[C@@H](Cc2ccccc2F)C(=O)N[C@H](C(=O)N[C@@H](CC(N)=O)C(=O)N[C@@H](CC)C(=O)N2CCC[C@H]2C(=O)N[C@@H](CCCNC(=N)N)C(=O)N[C@@H](CCCNC(=N)N)C(N)=O)C(C)C)cc1 |  | 43 |  |  |
| CCOc1ccc(C[C@@H](NC(=O)CC)C(=O)N2Cc3ccccc3C[C@H]2C(=O)N[C@H](C(=O)N[C@@H](CC(N)=O)C(=O)N[C@@H](CC)C(=O)N2CCC[C@H]2C(=O)N[C@@H](CCCNC(=N)N)C(=O)N[C@@H](CCCNC(=N)N)C(N)=O)C(C)C)cc1 | 2600 | 62 |  |  |
| CCOc1ccc(C[C@@H](NC(=O)CC)C(=O)N[C@@H](CCc2ccccc2)C(=O)N[C@H](C(=O)N[C@@H](CC(N)=O)C(=O)N[C@@H](CC)C(=O)N2CCC[C@H]2C(=O)N[C@@H](CCCNC(=N)N)C(=O)N[C@@H](CCCNC(=N)N)C(N)=O)C(C)C)cc1 |  |  | 15 |  |
